PMC5490255, “Minute Impurities Contribute Significantly to Olfactory Receptor Ligand Studies: Tales from Testing the Vibration Theory” (eNeuro, 2017)

Legend:
Or42b (dOr42b) [1] = target: T1, Or42b (dOr42b) (Drosophila melanogaster, UniProt Q9V9I4); experiment: GC-coupled calcium imaging (GCaMP6m) of Or42b neurons; settings: inhibitory (calcium decrease) at own elution time, direct receptor action not separately proven
T1 construct: native receptor in Or42b olfactory sensory neurons of living female flies (Or42b-Gal4 > UAS-GCaMP6m); calcium imaging of antenna or glomerulus DM1; endogenous Orco; with Odorant receptor coreceptor
T1 sequence (Q9V9I4 1-399): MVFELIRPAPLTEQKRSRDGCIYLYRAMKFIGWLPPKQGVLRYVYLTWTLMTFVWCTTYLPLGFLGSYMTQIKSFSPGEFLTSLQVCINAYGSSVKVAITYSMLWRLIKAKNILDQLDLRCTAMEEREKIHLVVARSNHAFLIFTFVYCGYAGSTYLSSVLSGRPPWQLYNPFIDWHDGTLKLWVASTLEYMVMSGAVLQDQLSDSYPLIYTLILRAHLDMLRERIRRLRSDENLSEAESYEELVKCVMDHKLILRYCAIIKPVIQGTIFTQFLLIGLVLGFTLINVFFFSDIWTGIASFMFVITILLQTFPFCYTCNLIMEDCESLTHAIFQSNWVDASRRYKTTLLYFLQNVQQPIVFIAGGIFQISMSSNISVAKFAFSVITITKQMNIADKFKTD
T1 sequence (Q9VNB5 1-486 partner): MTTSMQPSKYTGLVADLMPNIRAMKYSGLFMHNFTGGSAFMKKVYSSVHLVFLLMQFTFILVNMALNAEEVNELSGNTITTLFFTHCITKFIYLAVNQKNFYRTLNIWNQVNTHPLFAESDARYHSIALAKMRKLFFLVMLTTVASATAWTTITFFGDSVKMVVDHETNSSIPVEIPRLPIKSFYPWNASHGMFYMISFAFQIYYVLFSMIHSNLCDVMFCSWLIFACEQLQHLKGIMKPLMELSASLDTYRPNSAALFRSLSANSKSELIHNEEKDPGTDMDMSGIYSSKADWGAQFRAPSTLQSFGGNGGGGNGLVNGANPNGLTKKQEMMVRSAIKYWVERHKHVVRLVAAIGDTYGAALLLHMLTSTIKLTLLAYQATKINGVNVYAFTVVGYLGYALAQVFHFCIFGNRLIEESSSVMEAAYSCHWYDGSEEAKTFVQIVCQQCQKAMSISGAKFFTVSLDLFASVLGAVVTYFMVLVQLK

Or42b (dOr42b) [2] = target: T1, Or42b (dOr42b); experiment: GC-coupled antennal calcium imaging (GCaMP6m) of Or42b neurons, single dose; settings: agonist, 10^-2 dilution
[3] = GC-purified eluate of headspace

| Structure (SMILES) | GC-coupled antennal calcium imaging (GCaMP6m) of Or42b neurons, single dose (Or42b (dOr42b) [2]; [3]) | other results |
| --- | --- | --- |
| O=Cc1ccccc1 [benzaldehyde-d5] |  | GC-coupled calcium imaging (GCaMP6m) of Or42b neurons (Or42b (dOr42b) [1]; 10^-2 and 10^-1 dilution, deuterated compound, excitation without GC due to ethyl acetate impurity): response to either benzaldehyde-h or benzaldehyde-d5 was inhibitory at the elution time of benzaldehyde |
| O=Cc1ccccc1 [benzaldehyde-h] |  | GC-coupled calcium imaging (GCaMP6m) of Or42b neurons (Or42b (dOr42b) [1]; 10^-2 dilution): response to either benzaldehyde-h or benzaldehyde-d5 was inhibitory at the elution time of benzaldehyde |
| CCOC(=O)C[C@H](C)O [ethyl (S)-(+)-3-hydroxybutyrate] | ethyl propionate, propyl acetate, and ethyl (S)-(+)-3-hydroxybutyrate all elicited responses that decayed slowly |  |
| CCCC(=O)OCC [ethyl butyrate] |  | GC-coupled antennal calcium imaging (GCaMP6m) of Or42b neurons, single dose (Or42b (dOr42b) [2]; GC-purified, own elution peak (sample also held other active impurities)): unknown, and one corresponding to ethyl butyrate itself |
| CCOC(=O)CC [ethyl propionate] | ethyl propionate, propyl acetate, and ethyl (S)-(+)-3-hydroxybutyrate all elicited responses that decayed slowly |  |
| CCCOC(C)=O [propyl acetate] | ethyl propionate, propyl acetate, and ethyl (S)-(+)-3-hydroxybutyrate all elicited responses that decayed slowly |  |
